Literature values in US5952383A, “Pharmaceutical composition for oral delivery” (Negma-Steba International Development N.V., priority 1996, dated 1999).
Structures can show the parent of a compound that is named as a salt.

Legend:
[1] = oral

Row | SMILES | solubility in carbonate solutions and in tetrahydrofuran (carbonate solutions and tetrahydrofuran) | solubility in water and in alcohols (water and alcohols) | solubility in water and ethanol (water and ethanol) | absorption by the digestive tract [1] | undesirable side effects ([1]; on account of incomplete absorption) | solubility in water (water, EP-A-243,968)
1 | CC(=O)Oc1cccc2c1C(=O)c1c(OC(C)=O)cc(C(=O)O)cc1C2=O [diacerein, diacetylrhein] | sparingly soluble | virtually insoluble | virtually insoluble | not totally absorbed | laxative effects | –
2 | CC(=O)Oc1cccc2c1C(=O)c1c(OC(C)=O)cc(C(=O)O)cc1C2=O [potassium salt of diacerein] | – | – | – | – | – | water-soluble
